The values below come from patent publication US9562053B2, “Benzo-fused heterocyclic derivatives useful as agonists of GPR120” (Janssen Pharmaceutica NV, priority 2013, dated 2017).

This test deals with T1, Human GPR120 short form (Homo sapiens, UniProt Q5NUL3).
T1 construct: expressed in transfected cells
T1 sequence (Q5NUL3 1-361): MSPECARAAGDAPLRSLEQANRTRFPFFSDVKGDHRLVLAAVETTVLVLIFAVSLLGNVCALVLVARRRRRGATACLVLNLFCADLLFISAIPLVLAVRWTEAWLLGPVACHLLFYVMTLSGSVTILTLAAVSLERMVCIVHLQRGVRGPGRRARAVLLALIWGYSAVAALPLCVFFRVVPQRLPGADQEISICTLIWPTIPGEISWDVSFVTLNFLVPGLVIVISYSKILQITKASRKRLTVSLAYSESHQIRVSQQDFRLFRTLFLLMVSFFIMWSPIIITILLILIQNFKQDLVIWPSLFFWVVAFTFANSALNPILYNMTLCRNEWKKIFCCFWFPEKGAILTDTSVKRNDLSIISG
The test is described as follows: Human GPR120 in Calcium Flux Assay, Procedure Calcium A (2500 cells/well). The test is classed as cell-based. In a few lines: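 HEK293 cells stably expressing GPR120 short isoform, 2500 cells/well, serum-starved 1 h, loaded with Fluo-4 NW plus probenecid (30 min 37 °C, 15 min RT). Compounds prepared at 0.012–100 μM, 0.2% DMSO final. FLIPR calcium signal over 300 s as Fmax−Fmin; EC50 from variable-slope fit (Hill <2).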
In general terms: Calcium assays in cells follow changes in intracellular calcium, usually with a dye or a luminescent sensor.

As usually defined, the EC50 is the concentration needed to bring the measured effect to its halfway point. For `CCc1cc2cc(Cl)c(OC(F)F)c(COc3ccc(CCC(=O)O)c(C)c3C)c2o1` [Compound 69, 3-(4-{[5-Chloro-6-(difluoromethoxy)-2-ethyl-1-benzofuran-7-yl]methoxy}-2,3-dimethylphenyl)propanoic acid], the EC50 worked out at 45 nM.

`Cc1cc2cc(OC(F)(F)F)cc(COc3ccc(CCC(=O)O)c(C)c3C)c2o1` [Compound 36, 3-(2,3-Dimethyl-4-{[2-methyl-5-(trifluoromethoxy)-1-benzofuran-7-yl]methoxy}phenyl)propanoic acid]: the EC50 came out at 10 nM.

As for `Cc1cc2cc(Cl)c(C)c(COc3ccc(CCC(=O)O)c(C)c3C)c2o1` [Compound 85, 3-{4-[(5-Chloro-2,6-dimethyl-1-benzofuran-7-yl)methoxy]-2,3-dimethylphenyl}propanoic acid], the EC50 worked out at 15 nM.

With `Cc1cc2cc(OC(F)(F)F)cc(COc3ccc(CCC(=O)O)c4c3CCC4)c2o1` [Compound 55, 3-(7-{[2-Methyl-5-(trifluoromethoxy)-1-benzofuran-7-yl]methoxy}-2,3-dihydro-1H-inden-4-yl)propanoic acid], the EC50 came to 28 nM.

In the case of `CCc1cc2cc(Cl)cc(COc3ccc(CCC(=O)O)c4c3CCC4)c2o1` [Compound 54, 3-{7-[(5-Chloro-2-ethyl-1-benzofuran-7-yl)methoxy]-2,3-dihydro-1H-inden-4-yl}propanoic acid], the EC50 is 36 nM.

On to `Cc1cc2cc(Cl)cc(COc3ccc(CCC(=O)O)c(C)c3C)c2s1` [Compound 91, 3-{4-[(5-Chloro-2-methyl-1-benzothiophen-7-yl)methoxy]-2,3-dimethylphenyl}propanoic acid], for which the EC50 was found to be 1920 nM.

`CCCc1cc(OCc2cc(OC(F)(F)F)cc3cc(CC)oc23)c(F)cc1CCC(=O)O` [Compound 50, 3-(4-{[2-Ethyl-5-(trifluoromethoxy)-1-benzofuran-7-yl]methoxy}-5-fluoro-2-propylphenyl)propanoic acid]: the EC50 turned out to be 59 nM.

With `CCc1cc2cc(F)cc(COc3c(F)cc(CCC(=O)O)cc3F)c2o1` [Compound 17, 3-{4-[(2-Ethyl-5-fluoro-1-benzofuran-7-yl)methoxy]-3,5-difluorophenyl}propanoic acid], the EC50 amounted to 345 nM.

Turning to `Cc1cc2cc(Cl)cc(COc3ccc(CCC(=O)O)c(C)c3C)c2o1` [Compound 78, 3-{4-[(5-Chloro-2-methyl-1-benzofuran-7-yl)methoxy]-2,3-dimethylphenyl}propanoic acid], the EC50 amounted to 20 nM.

Take `Cc1c(CCC(=O)O)ccc(OCc2cc(OC(F)(F)F)cc3cc(CC(F)F)oc23)c1C` [Compound 96, 3-(4-{[2-(2,2-Difluoroethyl)-5-(trifluoromethoxy)-1-benzofuran-7-yl]methoxy}-2,3-dimethylphenyl)propanoic acid]: the EC50 stood at 30 nM.

With `Cc1oc2cc(Cl)cc(COc3ccc(CCC(=O)O)c(C)c3C)c2c1C` [Compound 80, 3-{4-[(6-Chloro-2,3-dimethyl-1-benzofuran-4-yl)methoxy]-2,3-dimethylphenyl}propanoic acid], the EC50 is 151 nM.

On to `Cc1c(CCC(=O)O)ccc(OCc2cc(F)cc3cc(C(F)F)oc23)c1C` [Compound 32, 3-(4-{[2-(Difluoromethyl)-5-fluoro-1-benzofuran-7-yl]methoxy}-2,3-dimethylphenyl)propanoic acid], for which the EC50 came to 277 nM.

For the compound `Cc1cc2cc(Cl)cc(COc3c(F)cc(CCCO)cc3F)c2s1` [Compound 93, 3-{4-[(5-Chloro-2-methyl-1-benzothiophen-7-yl)methoxy]-3,5-difluorophenyl}propan-1-ol], the EC50 is 1600 nM.

Consider `CCc1cc2cc(OC(F)(F)F)cc(COc3ccc(CCC(=O)O)c4c3CCC4)c2o1` [Compound 52, 3-(7-{[2-Ethyl-5-(trifluoromethoxy)-1-benzofuran-7-yl]methoxy}-2,3-dihydro-1H-inden-4-yl)propanoic acid], for which the EC50 turned out to be 29 nM.

Take `CCc1cc2cc(OC(F)(F)F)cc(COc3ccc(CCC(=O)O)c(C)c3C)c2o1` [Compound 12, 3-(4-{[2-Ethyl-5-(trifluoromethoxy)-1-benzofuran-7-yl]methoxy}-2,3-dimethylphenyl)propanoic acid]: the EC50 was determined as 39 nM.

`CCc1cc2cc(Cl)c(OC(C)C)c(COc3ccc(CCC(=O)O)c(C)c3C)c2o1` [Compound 65, 3-(4-{[5-Chloro-2-ethyl-6-(1-methylethoxy)-1-benzofuran-7-yl]methoxy}-2,3-dimethylphenyl)propanoic acid]: the EC50 came out at 96 nM.

On to `Cc1c(CCC(=O)O)ccc(OCc2cc(F)cc3cc(C(F)(F)F)oc23)c1C` [Compound 4, 3-(4-{[5-Fluoro-2-(trifluoromethyl)-1-benzofuran-7-yl]methoxy}-2,3-dimethylphenyl)propanoic acid], for which the EC50 is 279 nM.

Turning to `Cc1c(CCC(=O)O)ccc(OCc2cc(F)cc3cc(CC(C)C)oc23)c1C` [Compound 23, 3-(4-{[5-Fluoro-2-(2-methylpropyl)-1-benzofuran-7-yl]methoxy}-2,3-dimethylphenyl)propanoic acid], the EC50 is 339 nM.

For the compound `CCCc1cc2cc(OC(F)F)cc(COc3ccc(CCC(=O)O)c(C)c3C)c2o1` [Compound 77, 3-(4-{[5-(Difluoromethoxy)-2-propyl-1-benzofuran-7-yl]methoxy}-2,3-dimethylphenyl)propanoic acid], the EC50 was found to be 28 nM.

In the case of `CCc1cc2ccc(OC(F)F)c(COc3ccc(CCC(=O)O)c(C)c3C)c2o1` [Compound 70, 3-(4-{[6-(Difluoromethoxy)-2-ethyl-1-benzofuran-7-yl]methoxy}-2,3-dimethylphenyl)propanoic acid], the EC50 was 162 nM.

Take `CCc1cc2cc(Cl)c(OCC(F)(F)F)c(COc3ccc(CCC(=O)O)c(C)c3C)c2o1` [Compound 64, 3-(4-{[5-Chloro-2-ethyl-6-(2,2,2-trifluoroethoxy)-1-benzofuran-7-yl]methoxy}-2,3-dimethylphenyl)propanoic acid]: the EC50 was 56 nM.

In the case of `CCCc1cc2cc(C(F)(F)F)cc(COc3ccc(CCC(=O)O)c(C)c3C)c2o1` [Compound 37, 3-(2,3-Dimethyl-4-{[2-propyl-5-(trifluoromethyl)-1-benzofuran-7-yl]methoxy}phenyl)propanoic acid], the EC50 was found to be 43 nM.

Take `Cc1cc2cc(F)cc(COc3ccc(CCC(=O)O)c(C)c3C)c2o1` [Compound 2, 3-{4-[(5-Fluoro-2-methyl-1-benzofuran-7-yl)methoxy]-2,3-dimethylphenyl}propanoic acid]: the EC50 worked out at 51 nM.

On to `CCc1cc2cc(OC(F)F)cc(COc3ccc(CCC(=O)O)c(C)c3C)c2o1` [Compound 57, 3-(4-{[5-(Difluoromethoxy)-2-ethyl-1-benzofuran-7-yl]methoxy}-2,3-dimethylphenyl)propanoic acid], for which the EC50 came to 17 nM.

Consider `COCc1cc2cc(F)cc(COc3ccc(CCC(=O)O)c(C)c3C)c2o1` [Compound 21, 3-(4-{[5-Fluoro-2-(methoxymethyl)-1-benzofuran-7-yl]methoxy}-2,3-dimethylphenyl)propanoic acid], for which the EC50 stood at 159 nM.

In the case of `Cc1cc2cc(Cl)c(C)c(COc3c(F)cc(CCC(=O)O)cc3F)c2o1` [Compound 86, 3-{4-[(5-Chloro-2,6-dimethyl-1-benzofuran-7-yl)methoxy]-3,5-difluorophenyl}propanoic acid], the EC50 was determined as 207 nM.

`Cc1oc2cccc(COc3ccc(CCC(=O)O)c(C)c3C)c2c1C` [Compound 60, 3-{4-[(2,3-Dimethyl-1-benzofuran-4-yl)methoxy]-2,3-dimethylphenyl}propanoic acid]: the EC50 worked out at 162 nM.

As to `Cc1cc2c(F)c(OC(F)(F)F)c(F)c(COc3ccc(CCC(=O)O)c(F)c3F)c2o1` [Compound 75, 3-(4-{[4,6-Difluoro-2-methyl-5-(trifluoromethoxy)-1-benzofuran-7-yl]methoxy}-2,3-difluorophenyl)propanoic acid], the EC50 was found to be 182 nM.

As for `Cc1c(CCC(=O)O)ccc(OCc2cc(Cl)cc3cn(C)nc23)c1C` [Compound 8, 3-{4-[(5-Chloro-2-methyl-2H-indazol-7-yl)methoxy]-2,3-dimethylphenyl}propanoic acid], the EC50 is 297 nM.

For the compound `Cc1cc2c(F)c(OC(F)(F)F)c(F)c(COc3ccc(CCC(=O)O)c(C)c3C)c2o1` [Compound 71, 3-(4-{[4,6-Difluoro-2-methyl-5-(trifluoromethoxy)-1-benzofuran-7-yl]methoxy}-2,3-dimethylphenyl)propanoic acid], the EC50 was determined as 64 nM.

`Cc1nc2cc(Cl)cc(COc3ccc(CCC(=O)O)c(C)c3C)c2o1` [Compound 84, 3-{4-[(5-Chloro-2-methyl-1,3-benzoxazol-7-yl)methoxy]-2,3-dimethylphenyl}propanoic acid]: the EC50 was 131 nM.

Regarding `Cc1c(CCC(=O)O)ccc(OCc2cc(F)cc3cc(C(C)C)oc23)c1C` [Compound 22, 3-(4-{[5-Fluoro-2-(1-methylethyl)-1-benzofuran-7-yl]methoxy}-2,3-dimethylphenyl)propanoic acid], the EC50 was 166 nM.

Consider `CCc1cc2cc(Cl)c(OCCOC)c(COc3ccc(CCC(=O)O)c(C)c3C)c2o1` [Compound 63, 3-(4-{[5-Chloro-2-ethyl-6-(2-methoxyethoxy)-1-benzofuran-7-yl]methoxy}-2,3-dimethylphenyl)propanoic acid], for which the EC50 came to 67 nM.

For `Cc1cc2cc3c(c(COc4ccc(CCC(=O)O)c(C)c4C)c2o1)OCCO3` [Compound 90, 3-{2,3-Dimethyl-4-[(7-methyl-2,3-dihydrofuro[2,3-g][1,4]benzodioxin-5-yl)methoxy]phenyl}propanoic acid], the EC50 worked out at 113 nM.
